Experimental findings from patent US20250154138A1, “Small Molecule IL-17A Modulators” (BeiGene, Ltd., priority 2022, published 2025) are described below.

Assay [1] concerns IL-17-induced GROα secretion from HT-29 cells. The experiment in a line: GROα release assay in human colorectal adenocarcinoma epithelial cell (HT-29, ELISA). It is filed as cell-based. The following applies: Homo sapiens, HT-29, 48 h, 10 ng/mL IL-17A, highest concentration 10 μM, read-out: Cellular assay HT29 cell/CXCL1 IC50. The method in brief: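 HT-29 cells were exposed 48 h at 37°C to IL-17A (final 10 ng/mL) preincubated 15 min with compound (4-fold dilutions, top 10 μM). Secreted GROα was quantified by ELISA against a standard curve, and IC50 obtained by four-parameter fitting.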

In assay [2] the target is human IL-17A / human IL-17RA (Homo sapiens (Human), UniProt Q16552). The experiment in a line: Human IL-17A biochemical assay (HTRF, blocking of IL-17A binding to IL-17RA). The following applies: 0.4 nM IL-17A, 0.3 nM IL-17RA, max compound concentration 10 uM. The method in brief: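 Inhibition of IL-17A binding to IL-17RA is measured by HTRF using 0.4 nM IL-17A, 0.3 nM IL-17RA and a 3 h compound pre-incubation at room temperature, pH 7.5. IC50 values come from four-parameter logistic fitting.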
A general note: Time-resolved FRET reads energy transfer from a long-lived donor to a nearby acceptor.

SMILES strings stand for the structures.

Chain of human IL-17A / human IL-17RA (Q16552 24-155): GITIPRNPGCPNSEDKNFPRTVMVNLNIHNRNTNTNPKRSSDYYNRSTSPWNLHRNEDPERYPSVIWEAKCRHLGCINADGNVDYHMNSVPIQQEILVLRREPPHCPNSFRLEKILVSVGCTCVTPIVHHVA

Regarding `CC#CCC1CN(C2(C(=O)NC)Cc3ccc(NC(=O)[C@@H](NC(=O)c4ccnn4C)C4CCCCC4)cc3C2)C(=O)N1` (stereo partly drawn) [Example 106, N-((1S)-2-((2-(4-(but-2-yn-1-yl)-2-oxoimidazolidin-1-yl)-2-(methylcarbamoyl)-2,3-dihydro-1H-inden-5-yl)amino)-1-cyclohexyl-2-oxoethyl)-1-methyl-1H-pyrazole-5-carboxamide], the IC50 in assay [1] came to 202 nM; in assay [2] it was 48 nM.

For `CC(C)[C@@H]1CN(C2(C(=O)NC(CO)C3CCCC3)Cc3ccc(NC(=O)[C@@H](NC(=O)c4ccnn4C)C4CCCCC4)cc3C2)C(=O)N1` (stereo partly drawn) [Example 107, N-((1S)-1-cyclohexyl-2-((2-((1-cyclopentyl-2-hydroxyethyl)carbamoyl)-2-((R)-4-isopropyl-2-oxoimidazolidin-1-yl)-2,3-dihydro-1H-inden-5-yl)amino)-2-oxoethyl)-1-methyl-1H-pyrazole-5-carboxamide], the values for the IC50 in assay [1] and in assay [2] were 34.5 nM and 25 nM, respectively.

In the case of `CNC(=O)C1(N2CC3(CCC3)CNC2=O)Cc2ccc(NC(=O)[C@@H](NC(=O)c3ccnn3C)C3CCCCC3)cc2C1` (stereo partly drawn) [Example 108, N-((1S)-1-cyclohexyl-2-((2-(methylcarbamoyl)-2-(7-oxo-6,8-diazaspiro[3.5]nonan-6-yl)-2,3-dihydro-1H-inden-5-yl)amino)-2-oxoethyl)-1-methyl-1H-pyrazole-5-carboxamide], the results for the IC50 in assay [1] and in assay [2] were 42.3 nM and 5.8 nM, respectively.

`CNC(=O)C1(N2CC3(CCC3)CNC2=O)Cc2ccc(NC(=O)[C@@H](NC(=O)c3nonc3C)C3CCCCC3)cc2C1` (stereo partly drawn) [Example 110, N-((1S)-1-cyclohexyl-2-((2-(methylcarbamoyl)-2-(7-oxo-6,8-diazaspiro[3.5]nonan-6-yl)-2,3-dihydro-1H-inden-5-yl)amino)-2-oxoethyl)-4-methyl-1,2,5-oxadiazole-3-carboxamide]: the values for the IC50 in assay [1] and in assay [2] were 76.5 nM and 15 nM, respectively.

In the case of `CNC(=O)C1(N2C[C@@H](C(C)C)NC2=O)Cc2ccc(NC(=O)C(NC(=O)c3ccnn3C)C3C4CC5CC(C4)CC3C5)cc2C1` (stereo partly drawn) [Example 111, N-(1-((1R,3S,5R,7R)-adamantan-2-yl)-2-((2-((R)-4-isopropyl-2-oxoimidazolidin-1-yl)-2-(methylcarbamoyl)-2,3-dihydro-1H-inden-5-yl)amino)-2-oxoethyl)-1-methyl-1H-pyrazole-5-carboxamide], the figures for the IC50 in assay [1] and in assay [2] were 112 nM and 55 nM, respectively.

In the case of `CNC(=O)C1(N2C[C@@H](C(C)C)NC2=O)Cc2ccc(NC(=O)C(NC(=O)c3ccnn3C)C3CCC4(CC3)CC4)cc2C1` (stereo partly drawn) [Example 112, N-(2-((2-((R)-4-isopropyl-2-oxoimidazolidin-1-yl)-2-(methylcarbamoyl)-2,3-dihydro-1H-inden-5-yl)amino)-2-oxo-1-(spiro[2.5]octan-6-yl)ethyl)-1-methyl-1H-pyrazole-5-carboxamide], the IC50 in assay [1] came to 181 nM; in assay [2] it was 41 nM.

Take `CNC(=O)C1(N2CC(C)(C3CC3)CNC2=O)Cc2ccc(NC(=O)[C@@H](NC(=O)c3ccnn3C)C3CCCCC3)cc2C1` (stereo partly drawn) [Example 113, N-((1S)-1-cyclohexyl-2-((2-(5-cyclopropyl-5-methyl-2-oxotetrahydropyrimidin-1(2H)-yl)-2-(methylcarbamoyl)-2,3-dihydro-1H-inden-5-yl)amino)-2-oxoethyl)-1-methyl-1H-pyrazole-5-carboxamide]: the IC50 was 457 nM in assay [1] and 53 nM in assay [2].

Take `CNC(=O)C1(N2CC3(CC3)CNC2=O)Cc2ccc(NC(=O)[C@@H](NC(=O)c3ccnn3C)C(C3CC3)C3CC3)cc2C1` (stereo partly drawn) [Example 114, N-((2S)-1,1-dicyclopropyl-3-((2-(methylcarbamoyl)-2-(6-oxo-5,7-diazaspiro[2.5]octan-5-yl)-2,3-dihydro-1H-inden-5-yl)amino)-3-oxopropan-2-yl)-1-methyl-1H-pyrazole-5-carboxamide]: the IC50 was found to be 57.2 nM in assay [1] and 73.9 nM in assay [2].

For `CNC(=O)C1(N2CC3(CC3)CNC2=O)Cc2ccc(NC(=O)[C@@H](NC(=O)c3ccnn3C(C)C)C(C3CC3)C3CC3)cc2C1` (stereo partly drawn) [Example 115, N-((2S)-1,1-dicyclopropyl-3-((2-(methylcarbamoyl)-2-(6-oxo-5,7-diazaspiro[2.5]octan-5-yl)-2,3-dihydro-1H-inden-5-yl)amino)-3-oxopropan-2-yl)-1-isopropyl-1H-pyrazole-5-carboxamide], the IC50 in assay [1] amounted to 72.4 nM; in assay [2], 258 nM.

As to `CNC(=O)C1(N2C[C@@H](C(C)C)NC2=O)Cc2ccc(NC(=O)[C@@H](NC(=O)c3nonc3C)C3CCC(F)(F)CC3)cc2C1` (stereo partly drawn) [Example 116, N-((1S)-1-(4,4-difluorocyclohexyl)-2-((2-((R)-4-isopropyl-2-oxoimidazolidin-1-yl)-2-(methylcarbamoyl)-2,3-dihydro-1H-inden-5-yl)amino)-2-oxoethyl)-4-methyl-1,2,5-oxadiazole-3-carboxamide], the IC50 in assay [1] came to 415 nM; in assay [2], 69.1 nM.

As for `CNC(=O)C1(N2C[C@@H](C(C)C)NC2=O)Cc2cc(NC(=O)[C@@H](NC(=O)c3ccnn3C)C3CCCCC3)cnc2C1` (stereo partly drawn) [Example 117, 3-((S)-2-cyclohexyl-2-(1-methyl-1H-pyrazole-5-carboxamido)acetamido)-6-((R)-4-isopropyl-2-oxoimidazolidin-1-yl)-N-methyl-6,7-dihydro-5H-cyclopenta[b]pyridine-6-carboxamide], the IC50 is 1060 nM in assay [1] and 925 nM in assay [2].

For `CNC(=O)C1(N2C[C@@H](C(C)C)NC2=O)Cc2ccc(NC(=O)C(NC(=O)c3ccnn3C)C3CCC(C(C)(C)C)CC3)cc2C1` (stereo partly drawn) [Example 118, N-(1-(4-(tert-butyl)cyclohexyl)-2-((2-((R)-4-isopropyl-2-oxoimidazolidin-1-yl)-2-(methylcarbamoyl)-2,3-dihydro-1H-inden-5-yl)amino)-2-oxoethyl)-1-methyl-1H-pyrazole-5-carboxamide], the IC50 was found to be 581 nM in assay [1] and 192 nM in assay [2].

On to `CNC(=O)C1(N2C[C@@H](C(C)C)NC2=O)Cc2cc(F)c(NC(=O)[C@@H](NC(=O)c3ccnn3C)C3CCCCC3)cc2C1` (stereo partly drawn) [Example 119, N-((1S)-1-cyclohexyl-2-((6-fluoro-2-((R)-4-isopropyl-2-oxoimidazolidin-1-yl)-2-(methylcarbamoyl)-2,3-dihydro-1H-inden-5-yl)amino)-2-oxoethyl)-1-methyl-1H-pyrazole-5-carboxamide], for which the IC50 is 144 nM in assay [1] and 73 nM in assay [2].

For the molecule `CNC(=O)C1(N2CC3(CCC3)CNC2=O)Cc2ccc(NC(=O)[C@@H](NC(=O)c3ccnn3C)C(C3CC3)C3CC3)cc2C1` (stereo partly drawn) [Example 120, N-((2S)-1,1-dicyclopropyl-3-((2-(methylcarbamoyl)-2-(7-oxo-6,8-diazaspiro[3.5]nonan-6-yl)-2,3-dihydro-1H-inden-5-yl)amino)-3-oxopropan-2-yl)-1-methyl-1H-pyrazole-5-carboxamide], the results for the IC50 in assay [1] and in assay [2] were 72.4 nM and 19 nM, respectively.

With `CC(C)[C@@H]1CN(C2(C(=O)N[C@H](CO)C3CCCCC3)Cc3ccc(NC(=O)[C@@H](NC(=O)c4ccnn4C)C4CCCCC4)cc3C2)C(=O)N1` (stereo partly drawn) [Example 121, N-((1S)-1-cyclohexyl-2-((2-(((S)-1-cyclohexyl-2-hydroxyethyl)carbamoyl)-2-((R)-4-isopropyl-2-oxoimidazolidin-1-yl)-2,3-dihydro-1H-inden-5-yl)amino)-2-oxoethyl)-1-methyl-1H-pyrazole-5-carboxamide], the figures for the IC50 in assay [1] and in assay [2] were 32.3 nM and 16 nM, respectively.

Take `CC(C)[C@@H]1CN(C2(C(=O)N[C@@H](CO)C3CCCCC3)Cc3ccc(NC(=O)[C@@H](NC(=O)c4ccnn4C)C4CCCCC4)cc3C2)C(=O)N1` (stereo partly drawn) [Example 122, N-((1S)-1-cyclohexyl-2-((2-(((R)-1-cyclohexyl-2-hydroxyethyl)carbamoyl)-2-((R)-4-isopropyl-2-oxoimidazolidin-1-yl)-2,3-dihydro-1H-inden-5-yl)amino)-2-oxoethyl)-1-methyl-1H-pyrazole-5-carboxamide]: the IC50 in assay [1] came to 13 nM; in assay [2], 10 nM.

As to `CNC(=O)C1(N2C[C@@H](C(C)C)NC2=O)CCc2cc3[nH]c([C@@H](NC(=O)c4ccnn4C)C4CCCCC4)nc3cc2C1` (stereo partly drawn) [Example 123, 2-((S)-cyclohexyl(1-methyl-1H-pyrazole-5-carboxamido)methyl)-6-((R)-4-isopropyl-2-oxoimidazolidin-1-yl)-N-methyl-5,6,7,8-tetrahydro-1H-naphtho[2,3-d]imidazole-6-carboxamide], the values for the IC50 in assay [1] and in assay [2] were 61.6 nM and 441 nM, respectively.

With `CC(C)CNC(=O)C1(N2C[C@@H](C(C)C)NC2=O)Cc2ccc(NC(=O)[C@@H](NC(=O)c3ccnn3C)C3CCCCC3)cc2C1` (stereo partly drawn) [Example 124, N-((1S)-1-cyclohexyl-2-((2-(isobutylcarbamoyl)-2-((R)-4-isopropyl-2-oxoimidazolidin-1-yl)-2,3-dihydro-1H-inden-5-yl)amino)-2-oxoethyl)-1-methyl-1H-pyrazole-5-carboxamide], the IC50 in assay [1] worked out at 32.5 nM; in assay [2] it was 19 nM.

With `CCC1CCC(C(NC(=O)c2ccnn2C)C(=O)Nc2ccc3c(c2)CC(C(=O)NC)(N2CC4(CCC4)CNC2=O)C3)CC1` (centres unmarked) [Example 125, N-(1-(4-ethylcyclohexyl)-2-((2-(methylcarbamoyl)-2-(7-oxo-6,8-diazaspiro[3.5]nonan-6-yl)-2,3-dihydro-1H-inden-5-yl)amino)-2-oxoethyl)-1-methyl-1H-pyrazole-5-carboxamide], the IC50 in assay [1] came out at 25.8 nM; in assay [2], 5.6 nM.
